“Also recorded” adds a separate entry of the source. Non-standard residues stand in square brackets, D forms with d. Residues, ends and D or L forms follow the SMILES beside them. *: point of attachment. 1Nal = N[C@@H](Cc1cccc2ccccc12)C(=O)O; Myristoyl = CCCCCCCCCCCCCC(=O)*; Dap = NC[C@H](N)C(=O)O; Sar = CNCC(=O)O
Tests used:
fed C57BL/6 male mice = assay: Effect of SC administered ghrelin analogs on food intake; format: in vivo; conditions: for maximal effect at 5 mg/kg on food intake: SC 5 mg/kg, evaluated 480 min after administration; for ED50 (250 min after injection), effect on food intake: SC
Experimental: All of the experiments followed the ethical guidelines for animal experiments and Czech Republic law 246/1992 and were approved by the committee for experiments with laboratory animals of the Academy of Sciences of the Czech Republic. Male C57BL/6 mice (Charles River, Germany) were housed at a temperature 22±2° C. under a daily cycle of 12/12 h light/dark (light from 6:00) with free access to water and a standard chow diet St-1 which contained […] of calories from protein, fat and carbohydrate, respectively, and its energy content was 3.4 kcal/g (Mlýn Kocanda, Praha, Czech Republic). Mice were placed into separate cages for one week before experiment, they had free access to water and food pellets. Closely before the experiment, the food pellets were removed from the cages. […] 15 min after the injection, mice were given preweighed food pellets. Food intake was monitored for 8-10 hours at 30-min intervals. Mice had free access to water during the experiment. Experiments were performed at least twice for each tested compound, each experimental group had at least 5 mice.
Data from food intake experiments were analyzed by one-way ANOVA followed by Dunnett's post-hoc test using GraphPad Prism Software (San Diego, Calif., USA), P<0.05 was considered statistically significant. ED50 values were calculated using GraphPad Prism Software as the dose of the tested compound required to elicit half-maximal effect at 250 min after administration of the corresponding compound.
Food intake was monitored for […] after administration of the compounds. ED50 values were determined 250 min after administration. Maximal effect on food intake was evaluated […] after administration of the compounds at a dose of 5 mg/kg of body weight. NT—not tested.

[1] = Pharmacokinetics in vivo after SC administration to mice; conditions: SC 5 mg/kg
Experimental: Mice were housed at a temperature 22±2° C. under a daily cycle of 12/12 h light/dark (light from 6:00) with free access to water and a standard chow diet St-1 (Mlýn Kocanda, Praha, Czech Republic).
4, 6, 14 and 18 at a dose of 5 mg/kg of body weight (0.2 ml/mouse, n=4). Blood was collected from tails before injection and 0.5, 1, 2, 4, 8, 16 and 24 h after injection. Plasma was separated and stored at −20° C.

[2] = tested on: 4-5-week old male C57BL/6 mice; assay: Growth hormone (GH) release after SC administration to young mice; format: in vivo; conditions: 10 min after SC 5 mg/kg
Experimental: 4 and 14 at a dose of 5 mg/kg of body weight (0.2 ml/mouse). 10 min after the injection, blood was collected, plasma was prepared and stored at −20° C. until use. GH levels in the plasma samples were determined by Rat/Mouse Growth Hormone ELISA kit (Merck-Millipore, St. Charles, Mo., USA). Ghrelin analogs no.

human GHS-R1a receptor = target: T1, human GHS-R1a receptor (Homo sapiens, UniProt Q92847); assay: Competitive binding studies (displacement of 125I-ghrelin); conditions: relative to ghrelin = 100
T1 construct: purchased Multispan, Hayward, Calif., USA; host or cells: HEK293T cells, isolated plasma membranes
Experimental: Isolated plasma membranes from the HEK293T cells with transfected human GHS-R1a receptor (Multispan, Hayward, Calif., USA) were used. […] Experiments were carried out in duplicates at least three times. Competitive binding curves were plotted using GraphPad Prism Software (San Diego, Calif., USA) while comparing the best fit for single binding sites models.

[3] = tested on: mouse model of lipopolysaccharide-induced cachexia; assay: Mouse model of lipopolysaccharide-induced cachexia (LPS model); format: in vivo, mice
Experimental: Male C57BL/6 mice (Charles River, Germany) were housed at a temperature of 22±2° C. under a daily cycle of 12/12 h light/dark (light from 6:00) with free access to water and a standard chow diet St-1 (Mlýn Kocanda, Praha, Czech Republic). One week before the experiment, the mice were placed into separated cages and habituated to an automatic system for food intake monitoring (Developmental workshop IOCB, Prague, Czech Republic). Animals were randomized into two groups, LPS group and control group. At 17:00, the LPS group was injected intraperitoneally (IP) with 100 μg/kg of body weight LPS (Escherichia coli 055:B5 serotype, Sigma) in a volume of 0.2 ml saline. The control group received an IP injection with an equal volume of saline. Food intake was monitored automatically in 10-min intervals. […] 14 (n=4-5 mice per group). Food intake was monitored for another 10 hours.
At the end of the experiment, mice were sacrificed by decapitation, blood was collected, plasma was prepared and stored at −20° C. Hypothalamus was dissected, frozen on dry ice and stored at −80° C., musculus gastrocnemius was dissected, flash-frozen in liquid nitrogen and stored at -80° C. C-reactive protein levels and pro-inflammatory/anti-inflammatory cytokine levels in blood plasma were determined using C-Reactive Protein Mouse ELISA (Biovendor, Bmo, Czech Republic) and Milliplex MAP Rat Cytokine/Chemokine Magnetic Bead Panel (Merck-Millipore, St. Charles, Mo., USA), respectively. Samples of hypothalamus and muscle were homogenized, total RNA was extracted and RNA concentration was determined as previously described (Holubova et al., 2014). Determination of the mRNA expression of genes of interest (MuRFI and MAFbx in muscle, NPY and AgRP in hypothalamus) was performed using an ABI PRISM 7500 instrument (Applied Biosystems, Foster City, Calif., USA). The expression of GAPDH or GUSH was used to compensate for variations in input RNA amounts and the efficiency of reverse transcription, and the modified formula 2-ΔCt was used to calculate the relative gene expression.

[4] = tested on: rat model of aortic stenosis-induced cachexia; assay: Rat model of aortic stenosis-induced cachexia; format: in vivo; conditions: 28-day continuous IP infusion
Experimental: Cachexia induced through the aortic stenosis (AS) was made in male Wistar rats, aged 8-9 months (Harlan, Italy). Rats were housed at a temperature of 22±2° C. under a daily cycle of 12/12 h light/dark (light from 6:00) with free access to water and a standard chow diet (Altromin, Germany).
The animals were anesthetized with isoflurane and the aortic stenosis was induced via abdominal incision. […] A steel wire (diameter 0.4 mm) was placed alongside the isolated aorta, both were gently tightened with a stitch (3-0 silk tread), and the wire was removed accordingly. […] Finally, the abdomen was sutured and the animals were kept in standard conditions with free access to regular rat chow and water ad libitum. The Sham group consisted of sham-operated rats prepared by a similar surgical treatment without aortic stenosis.
Mortality was about 5% within 72 h after stenosis. All animal experiments were approved by the Institutional Animal Experimental Ethics Committee of the Institute of Physiology AS CR. […] 2 dissolved in vehicle (2.5 mg/kg of body weight per day) for 28 days (n=5). Food intake and body weight of the rats was monitored every day.

[5] = tested on: rat model of subtotal nephrectomy; assay: Rat model of renal cachexia (subtotal nephrectomy, SNx); format: in vivo
Experimental: Male F344 rats (Harlan, Italy) were housed at a temperature of 22±2° C. under a daily cycle of 12/12 h light/dark (light from 6:00) with free access to water and a standard chow diet St-1 (Mlýn Kocanda, Praha, Czech Republic).
To induce renal dysfunction, 5/6 nephrectomy was performed to anesthetized 8-week-old rats (SNx group, n=14); the control group was sham-operated (Sham group, n=6). Starting from the following day, the rats were SC injected with saline or ghrelin analog no. 2 (5 mg/kg of body weight, dissolved in saline) for 15 days. Food intake and body weight of the rats was monitored every day. At the end of the experiment, blood was collected for determination of pro-inflammatory cytokines using the Milliplex MAP Rat Cytokine/Chemokine Magnetic Bead Panel (Merck-Millipore, St. Charles, Mo., USA).

[6] = single SC 5 mg/kg after LPS, 5 mg/kg
[7] = single SC administration, LPS model
[8] = 15-day SC 5 mg/kg, vs SNx/saline, 5 mg/kg

T1 sequence (Q92847 whole entry): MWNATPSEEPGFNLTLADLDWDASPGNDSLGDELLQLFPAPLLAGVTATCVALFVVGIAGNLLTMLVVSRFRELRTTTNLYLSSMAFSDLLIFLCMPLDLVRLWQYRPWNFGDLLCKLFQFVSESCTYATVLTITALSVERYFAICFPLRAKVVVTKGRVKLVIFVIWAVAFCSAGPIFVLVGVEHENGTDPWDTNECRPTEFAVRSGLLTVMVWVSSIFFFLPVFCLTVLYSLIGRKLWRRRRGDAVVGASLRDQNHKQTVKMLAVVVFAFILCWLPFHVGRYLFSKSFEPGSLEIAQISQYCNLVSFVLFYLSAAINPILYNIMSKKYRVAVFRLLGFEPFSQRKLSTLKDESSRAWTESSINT

Structure (SMILES) | maximal effect at 5 mg/kg on food intake (fed C57BL/6 male mice) | orexigenic effect (cumulative food intake), dose dependence (fed C57BL/6 male mice; SC 0.2, 1, 5 and 10 mg/kg, fed mice) | ED50 (250 min after injection), effect on food intake (fed C57BL/6 male mice; fed mice) [mg/kg] | stability in vivo compared with ghrelin or Dpr^3ghrelin [1] | GH levels in plasma [2] | % of ghrelin binding (human GHS-R1a receptor) [%] | half-life ([1]; male, C57BL/6, mouse, plasma) [h] | levels of C-reactive protein ([3]; single SC 5 mg/kg after LPS) | levels of pro-inflammatory cytokine IL-2 ([3]; single SC 5 mg/kg after LPS) | food intake ([3]; single SC 5 mg/kg after LPS, monitored 10 hours, 5 mg/kg) | expression of mRNA for orexigenic neuropeptides NPY and AgRP in hypothalamus [3, 6] | mRNA expression for markers of muscle degradation MuRF-1 and MAFbx [3, 6] | cachectic state [3, 7] | plasmatic levels of pro-inflammatory cytokines [3, 7] | cachectic state [4] | body weight of AS rats ([4]; 2.5 mg/kg per day) | levels of anti-inflammatory cytokine IL-10 (in words) ([5]; 15-day SC 5 mg/kg, vs SNx/saline) | body weight of SNx rats [5, 8] | levels of pro-inflammatory cytokines (in words) [5, 8] | cachectic state ([5]; repeated SC administration, SNx rats)
CCCCCCCCCCCCCC(=O)NC[C@H](NC(=O)[C@H](CO)NC(=O)CNC)C(=O)N[C@@H](Cc1cccc2ccccc12)C(=O)N[C@@H](CC(C)C)C(=O)N[C@@H](CO)C(=O)N1CCC[C@H]1C(=O)N[C@@H](CCC(=O)O)C(=O)N[C@@H](Cc1c[nH]cn1)C(=O)N[C@@H](CCC(N)=O)C(=O)N[C@@H](CCCCN)C(=O)N[C@@H](C)C(=O)N[C@@H](CCC(N)=O)C(=O)N[C@@H](CCC(N)=O)C(=O)N[C@@H](CCCNC(=N)N)C(=O)N[C@@H](CCCCN)C(=O)N[C@@H](CCC(=O)O)C(=O)N[C@@H](CO)C(=O)N[C@@H](CCCCN)C(=O)N[C@@H](CCCCN)C(=O)N1CCC[C@H]1C(=O)N1CCC[C@H]1C(=O)N[C@@H](C)C(=O)N[C@@H](CCCCN)C(=O)N[C@@H](CC(C)C)C(=O)N[C@@H](CCC(N)=O)C(=O)N1CCC[C@H]1C(=O)N[C@@H](CCCNC(=N)N)C(=O)O [Analog 4] (H-[Sar]S[Dap](Myristoyl)[1Nal]LSPEHQKAQQRKESKKPPAKLQPR-OH; N-terminus and C-terminus assumed) | 212.8 % of Dpr^3ghr | dose-dependent orexigenic effect | 6.02 | significantly more stable than ghrelin or Dpr^3ghrelin | did not alter the GH levels | 57 |  |  |  |  |  |  |  |  |  |  |  |  |  | 
CCCCCCCCCCCCCC(=O)NC[C@H](NC(=O)[C@H](CO)NC(=O)CNC)C(=O)N[C@@H](Cc1ccc(Cl)c(Cl)c1)C(=O)N[C@@H](CC(C)C)C(=O)N[C@@H](CO)C(=O)N1CCC[C@H]1C(=O)N[C@@H](CCC(=O)O)C(=O)N[C@@H](Cc1c[nH]cn1)C(=O)N[C@@H](CCC(N)=O)C(=O)N[C@@H](CCCCN)C(=O)N[C@@H](C)C(=O)N[C@@H](CCC(N)=O)C(=O)N[C@@H](CCC(N)=O)C(=O)N[C@@H](CCCNC(=N)N)C(=O)N[C@@H](CCCCN)C(=O)N[C@@H](CCC(=O)O)C(=O)N[C@@H](CO)C(=O)N[C@@H](CCCCN)C(=O)N[C@@H](CCCCN)C(=O)N1CCC[C@H]1C(=O)N1CCC[C@H]1C(=O)N[C@@H](C)C(=O)N[C@@H](CCCCN)C(=O)N[C@@H](CC(C)C)C(=O)N[C@@H](CCC(N)=O)C(=O)N1CCC[C@H]1C(=O)N[C@@H](CCCNC(=N)N)C(=O)O [Analog 14] | 235.5 % of Dpr^3ghr |  | 0.65 | significantly more stable than ghrelin or Dpr^3ghrelin | did not alter the GH levels | 7 | 5 | tended to normalize levels of C-reactive protein | normalized levels of pro-inflammatory cytokine IL-2 | significant increase in food intake; also recorded: increased food intake | significantly increased expression of mRNA; also recorded: increased expression of orexigenic neuropeptides in the hypothalamus | tended to decrease mRNA expression; also recorded: tended to decrease expression of markers of muscle degradation | improved the cachectic state | reduced plasmatic levels of pro-inflammatory cytokines |  |  |  |  |  | 
CCCCCCCCCCCCCC(=O)NC[C@H](NC(=O)[C@H](CO)NC(=O)CNC)C(=O)N[C@@H](Cc1ccccc1)C(=O)N[C@@H](CC(C)C)C(=O)N[C@@H](CO)C(=O)N1CCC[C@H]1C(=O)N[C@@H](CCC(=O)O)C(=O)N[C@@H](Cc1c[nH]cn1)C(=O)N[C@@H](CCC(N)=O)C(=O)N[C@@H](CCCCN)C(=O)N[C@@H](C)C(=O)N[C@@H](CCC(N)=O)C(=O)N[C@@H](CCC(N)=O)C(=O)N[C@@H](CCCNC(=N)N)C(=O)N[C@@H](CCCCN)C(=O)N[C@@H](CCC(=O)O)C(=O)N[C@@H](CO)C(=O)N[C@@H](CCCCN)C(=O)N[C@@H](CCCCN)C(=O)N1CCC[C@H]1C(=O)N1CCC[C@H]1C(=O)N[C@@H](C)C(=O)N[C@@H](CCCCN)C(=O)N[C@@H](CC(C)C)C(=O)N[C@@H](CCC(N)=O)C(=O)N1CCC[C@H]1C(=O)N[C@@H](CCCNC(=N)N)C(=O)O [Analog 2] | 202.7 % of Dpr^3ghr |  | 3.80 |  |  | 54 |  |  |  |  |  |  |  |  | improved the cachectic state | significantly increased body weight | significantly increased | significantly increased body weight | significantly decreased levels of these cytokines; also recorded: reduced blood levels of pro-inflammatory cytokines | improved the cachectic state

Source: US20170044230A1 (USTAV ORGANICKE CHEMIE A BIOCHEMIE AV CR, V.V.I., priority 2014, published 2017)
